Paper PMC12198292, “Advancing in vitro assessment of iodide uptake inhibition: integrating a novel biotransformation pretreatment step” (Archives of Toxicology, 2025)
Converted amounts (≈) assume the structure as drawn. Like-named read-outs stand apart in the source and are kept apart here.

Assays:
human NIS [1] = target: T1, human NIS (Homo sapiens, UniProt Q92911); assay: NIS-inhibition assay (iodide uptake, Sandell–Kolthoff reaction) on HEK293T NIS 02; assay type: cell-based; set-up: host or cells: HEK293T (lentiviral transduction, puromycin selection, GFP sorting; lines NIS 02 and NIS C); details: mean ± SD, ≥ 3 independent experiments, 2 h exposure, SK reaction; for IC50: read-out: NIS IC50 HEK293T NIS 02
T1 sequence (Q92911 1-643): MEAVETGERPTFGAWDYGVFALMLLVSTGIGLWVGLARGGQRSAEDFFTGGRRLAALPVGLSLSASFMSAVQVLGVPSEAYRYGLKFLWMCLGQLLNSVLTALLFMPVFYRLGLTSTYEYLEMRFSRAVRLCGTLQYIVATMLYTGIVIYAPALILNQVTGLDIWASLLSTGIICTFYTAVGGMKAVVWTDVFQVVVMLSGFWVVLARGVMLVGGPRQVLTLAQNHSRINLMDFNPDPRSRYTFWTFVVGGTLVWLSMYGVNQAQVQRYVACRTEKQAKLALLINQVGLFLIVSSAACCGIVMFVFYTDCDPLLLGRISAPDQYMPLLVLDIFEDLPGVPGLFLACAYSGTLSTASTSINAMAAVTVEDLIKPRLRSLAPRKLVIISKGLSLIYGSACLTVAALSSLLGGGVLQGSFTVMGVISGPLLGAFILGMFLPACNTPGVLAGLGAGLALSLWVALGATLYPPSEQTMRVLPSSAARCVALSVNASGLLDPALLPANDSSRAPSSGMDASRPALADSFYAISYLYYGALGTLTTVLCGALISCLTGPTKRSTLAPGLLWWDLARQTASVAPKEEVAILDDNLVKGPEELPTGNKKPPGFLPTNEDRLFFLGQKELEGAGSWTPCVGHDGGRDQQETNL

NIS = target: T2, NIS (Rattus norvegicus, UniProt Q63008); assay: NIS-inhibition assay (iodide uptake, Sandell–Kolthoff reaction) on FRTL-5; assay type: cell-based; details: mean ± SD, ≥ 3 independent experiments; 2 h exposure; SK reaction
T2 construct: the endogenously NIS-expressing rat FRTL-5 cell line; host or cells: FRTL-5 (CVCL_0265)
T2 sequence (Q63008 1-618): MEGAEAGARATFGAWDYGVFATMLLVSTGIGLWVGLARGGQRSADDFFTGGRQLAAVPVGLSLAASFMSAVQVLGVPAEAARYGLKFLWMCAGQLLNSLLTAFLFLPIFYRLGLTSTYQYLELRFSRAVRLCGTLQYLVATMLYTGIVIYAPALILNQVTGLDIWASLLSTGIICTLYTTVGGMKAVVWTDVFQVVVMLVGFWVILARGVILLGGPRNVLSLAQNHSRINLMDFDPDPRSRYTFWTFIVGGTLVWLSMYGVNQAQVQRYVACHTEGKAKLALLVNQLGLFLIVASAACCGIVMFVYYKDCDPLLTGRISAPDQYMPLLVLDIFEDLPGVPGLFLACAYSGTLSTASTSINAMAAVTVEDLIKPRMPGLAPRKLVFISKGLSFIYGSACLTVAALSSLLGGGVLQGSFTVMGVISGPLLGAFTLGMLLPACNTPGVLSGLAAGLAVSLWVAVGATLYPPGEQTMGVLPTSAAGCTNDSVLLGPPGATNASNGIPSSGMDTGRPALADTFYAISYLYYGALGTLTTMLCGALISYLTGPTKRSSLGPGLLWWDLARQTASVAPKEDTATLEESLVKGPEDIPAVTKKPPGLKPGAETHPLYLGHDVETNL

HEK293T NIS C cells = assay: Neutral red uptake viability assay, HEK293T NIS C; details: mean±SD, 2 h exposure
FRTL-5 cells = assay: Neutral red uptake viability assay, FRTL-5; details: mean±SD, 2 h exposure
human NIS [2] = target: T1, human NIS; assay: NIS-inhibition assay (iodide uptake, Sandell–Kolthoff reaction) on HEK293T NIS C; assay type: cell-based; set-up: host or cells: HEK293T (lentiviral transduction, puromycin selection, GFP sorting; lines NIS 02 and NIS C); details: mean ± SD, ≥ 3 independent experiments; 2 h exposure; SK reaction
[3] = set-up: method as in PubChem https://pubchem.ncbi.nlm.nih.gov/; details: ref PubChem https://pubchem.ncbi.nlm.nih.gov/; cited from earlier work
[4] = ref PubChem https://pubchem.ncbi.nlm.nih.gov/; cited from earlier work
human NIS [5] = target: T1, human NIS; set-up: host or cells: HEK293T (lentiviral transduction, puromycin selection, GFP sorting; lines NIS 02 and NIS C); details: hNIS-HEK293T-EPA, RAIU, cited from earlier work
[6] = set-up: method as in PubChem https://pubchem.ncbi.nlm.nih.gov/; details: ref PubChem https://pubchem.ncbi.nlm.nih.gov/; cited from earlier work; remark: listed apart in the source
human NIS [7] = target: T1, human NIS; assay: Biotransformation (BTS, rat S9)-augmented NIS-inhibition assay, HEK293T NIS02; details: for IC20: three independent experiments; for effect of fully active BTS (W/S9, W/cof) on NIS inhibition versus control setups: two-way ANOVA, p < 0.05
[8] = read-out: NIS inhibition IC20 D S9, W/cof, 5 h preincubation with denatured S9 and cofactors
[9] = read-out: NIS inhibition IC20 W/O S9, W/cof, 5 h preincubation without S9 fraction, with all cofactors

| NIS IC50 HEK293T NIS 02 (human NIS [1]) | NIS IC50 FRTL-5 (NIS) | Structure (SMILES) | NR IC20 HEK293T NISC (HEK293T NIS C cells) | NR IC20 FRTL-5 (FRTL-5 cells) | NIS IC50 HEK293T NIS C (human NIS [2]) | Henry‘s law [3] | solubility in water [4] | log Kow [6] | also measured |
| --- | --- | --- | --- | --- | --- | --- | --- | --- | --- |
| n.e and n.e. / n.e. | n.e and n.e./ n.e. | NC(=O)N1c2ccccc2C=Cc2ccccc21 [CBZ, Carbamazepine, reference compound] | n.e./ n.e. | – | n.e and n.e./ n.e. | 1.1x10^-10 atm- m^3/mol | 18 µg/mL (≈ 76.2 µM) | – | Data from literature NIS IC50 (human NIS [5]; ref US-EPA, 2024): n.e.; Data from literature NIS IC50 (human NIS [5]; ref Wang et al., 2019): n.e. |
| – | – | CC1=C[C@H]2O[C@@H]3[C@H](O)C[C@](C)([C@@]2(CO)[C@H](O)C1=O)[C@]31CO1 [DON, Deoxynivalenol] | – | – | – | 2.0x10^-14 atm- m^3/mol | 55000 µg/mL (≈ 186000 µM) | -0.71 | – |
| n.e and n.e. / n.e. | n.e and n.e. / n.e. | CCC(Cc1c(I)cc(I)c(N)c1I)C(=O)O (stereo not shown) [IOP, Iopanoic acid, reference compound] | n.e. / n.e. | n.e. / n.e. | n.e and n.e. / n.e. | – | 348.3 µg/mL (≈ 610 µM) | – | – |
| – | – | COc1ccc(C(c2ccc(OC)cc2)C(Cl)(Cl)Cl)cc1 [MET, Methoxychlor, reference compound] | n.e./ n.e. | 218±4.3 / n.e. | n.e and n.e./ n.e. | 2.03x10^-7 atm- m^3/mol | 0.04 µg/mL (≈ 0.116 µM) | 5.08 | IC20 (human NIS [7]; [8]): 20.7 ± 19.5 µM; IC20 (human NIS [7]; [9]): > 500 µM; effect of fully active BTS (W/S9, W/cof) on NIS inhibition versus control setups (human NIS [7]): no biotransformation-related effect changes were detected; IC50 (human NIS [1]): 11 ± 8.7 µM; IC50 (NIS): 218 ± 4.3 µM; IC20 (human NIS [5]; ref US-EPA, 2024, read-out: Data from literature NIS IC20): 12.6 µM; Data from literature NIS IC50 (human NIS [5]; ref Wang et al., 2018): n.e. |
| n.e and n.e. / n.e. | n.e and n.e. / n.e. | CCCc1cc(=O)[nH]c(=S)[nH]1 [PTU, 6-Propylthiouracil, reference compound] | n.e. / n.e. | n.e. / n.e. | n.e and n.e. / n.e. | 1.1x10^-9 atm- m^3/mol | – | – | Data from literature NIS IC50 (human NIS [5]; ref Buckalew et al., 2020): n.e.; Data from literature NIS IC50 (human NIS [5]; ref Hallinger et al., 2017): n.e. |
| – | – | Oc1cccc(O)c1 [RSC, Resorcinol] | n.e./ n.e. | 4709.5 ±562 / n.e. | n.e and n.e./ n.e. | 9.9x10^-11 atm- m^3/mol | – | 0.8 | effect of fully active BTS (W/S9, W/cof) on NIS inhibition versus control setups (human NIS [7]): no significant differences were observed; IC50 (human NIS [1]): 4060 ± 2050 µM; IC50 (NIS): 4710 ± 562 µM; Data from literature NIS IC50 (human NIS [5]; ref Wang et al., 2019): n.e. |
| n.e and n.e. / n.e. | n.e and n.e. / n.e. | O=C(O)c1ccccc1O [SA, Salicylic acid] | n.e. / n.e. | n.e. / n.e. | n.e and n.e. / n.e. | – | – | 2.26 | – |
| n.e and n.e. / n.e. | n.e and n.e. / n.e. | Cc1cc(NS(=O)(=O)c2ccc(N)cc2)no1 [SMX, Sulfamethoxazole, reference compound] | – | – | n.e and n.e. / n.e. | – | – | – | – |
| – | – | N[C@@H](Cc1cc(I)c(Oc2ccc(O)c(I)c2)c(I)c1)C(=O)O [T3, 3,3′,5-Triiodo-L-thyronine] | n.e. / n.e. | n.e. / n.e. | – | – | – | 0.93 | – |
| n.e and n.e. / n.e. | n.e and n.e. / n.e. | NC(Cc1cc(I)c(Oc2cc(I)c(O)c(I)c2)c(I)c1)C(=O)O [T4, 3,3′,5,5″-Tetraiodo-L-thyronine] | n.e. / n.e. | n.e. / n.e. | n.e and n.e. / n.e. | – | 0.162 µg/mL (≈ 0.209 µM) | 0.16 | – |
| – | – | O=P(Oc1ccccc1)(Oc1ccccc1)Oc1ccccc1 [TPP, Triphenyl phosphate] | n.e. / n.e. | 92.6 ±24.1 / n.e. | n.e and n.e. / n.e. | 3.3x10^-6 atm- m^3/mol | – | 4.6 | IC20 (human NIS [7]; [8]): 9.97 ± 3.36 µM; IC20 (human NIS [7]; read-out: NIS inhibition IC20 SM, standard method without preincubation, run in parallel): 7.93 ± 4.47 µM; IC20 (human NIS [7]; [9]): 17.5 ± 7.2 µM; effect of fully active BTS (W/S9, W/cof) on NIS inhibition versus control setups (human NIS [7]): no biotransformation-related effect changes were detected; IC50 (human NIS [1]): 42.8 ± 18.9 µM; IC50 (NIS): 92.6 ± 24.1 µM; IC50 (human NIS [5]; read-out: Data from literature NIS IC50, ref US-EPA, 2024): 50 µM |

| Structure (SMILES) | NIS IC50 HEK293T NIS 02 (human NIS [1]) | NIS IC50 FRTL-5 (NIS) | NR IC20 HEK293T NISC (HEK293T NIS C cells) | NR IC20 FRTL-5 (FRTL-5 cells) | NIS IC50 HEK293T NIS C (human NIS [2]) | Henry‘s law [3] | solubility in water [4] | log Kow [6] | also measured |
| --- | --- | --- | --- | --- | --- | --- | --- | --- | --- |
| CC1(C)S[C@@H]2[C@H](NC(=O)[C@H](N)c3ccccc3)C(=O)N2[C@H]1C(=O)O [AMP, Ampicillin, reference compound] | n.e and n.e./ n.e. | n.e and n.e./ n.e. | n.e./ n.e. | n.e./ n.e. | n.e and n.e./ n.e. | – | – | – | – |
| O=C(c1ccc(O)cc1O)c1ccc(O)cc1O [BP2, 2,2′-4,4′-Tetrahydroxy Benzophenone] | n.e and n.e./ n.e. | n.e and n.e. / n.e. | n.e./ n.e. | n.e. / n.e. | n.e and n.e./ n.e. | 3.6x10^-6 atm- m^3/mol | 8821 µg/mL (≈ 35800 µM) | – | – |
| S=C1NCCN1 [ETU, Ethylene thiourea] | n.e and n.e./ n.e. | n.e and n.e./ n.e. | n.e./ n.e. | n.e./ n.e. | n.e and n.e./ n.e. | 1.4x10^-11 atm- m^3/mol | – | -0.66 | – |
